{
  "source": "patent US8478375B2",
  "about": "“Sensor for detection of carbohydrate” (Medtronic Minimed, Inc., priority 2004, dated 2013)",
  "biological_target": "MBL (Homo sapiens, UniProt P11226)",
  "sequence (P11226 21-248)": "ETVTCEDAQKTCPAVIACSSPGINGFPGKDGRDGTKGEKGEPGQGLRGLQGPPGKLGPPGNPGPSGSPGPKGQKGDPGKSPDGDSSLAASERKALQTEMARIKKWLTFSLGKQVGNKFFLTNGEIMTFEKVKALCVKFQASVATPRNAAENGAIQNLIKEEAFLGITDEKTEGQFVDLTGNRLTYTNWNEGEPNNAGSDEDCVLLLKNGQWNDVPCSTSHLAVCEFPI",
  "test": "Affinity of monomeric saccharides for MBL",
  "type": "binding",
  "data": [
    {"smiles": "O=C[C@H](O)[C@@H](O)[C@@H](O)[C@H](O)CO", "note": "[galactose]", "values": [
      {"measurement": "affinity for MBL", "value": "very low affinity"}
    ]},
    {"smiles": "CC(=O)N[C@H]1C(O)O[C@H](CO)[C@@H](O)[C@@H]1O", "note": "(some centres unmarked) [N-acetyl-glucosamine]", "values": [
      {"measurement": "affinity for MBL", "value": "high affinity"}
    ]}
  ]
}
